Laboratory results published in patent US9163013B2, “Use of 1H-indazole-3-carboxamide compounds as glycogen synthase kinase 3 beta inhibitors” (AZIENDE CHIMICHE RIUNITE ANGELINI FRANCESCO A.C.R.A.F. …, priority 2012, dated 2015).
Structures can show the parent of a compound that is named as a salt.

Assays:
Test in all cases: Kinase selectivity panel
Format in all cases: biochemical
c-Met kinase (h) = c-Met kinase (h) (Homo sapiens (Human), UniProt P08581); settings: duplicate, read-out: % inhibition of control values, c-Met kinase (h)
Description: (§1) (a) Compound 1 was tested against a panel of 60 kinases in order to assess its selectivity. The assays were chosen taking into consideration the diversity of assay families.
(§2) Human recombinant kinases were incubated in the presence of specific peptide substrates plus ATP for different times (10, 15, 30, 60 or 90 minutes) at 22° C. Phosphorylated substrate was detected by LANCE or HTRF technology (CISBIO, MA, USA).
(§3) Compound 1 was tested at 10 μM in duplicate.
(§4) The results are expressed as a percent of inhibition of control specific activity obtained in the presence of the test compound 1 and are reported in the following Table 5.
(§5) (b) Compounds 7, 12, 21 and 24 were tested against the same panel of 60 kinases under the same conditions described above for compound 1.
(§6) The results are expressed as a percent of inhibition of control specific activity obtained in the presence of the test compounds and are reported in the following Table 6.

Pim2 kinase (h) = Pim2 kinase (h) (Homo sapiens (Human), UniProt Q9P1W9); settings: duplicate, read-out: % inhibition of control values, Pim2 kinase (h)
Description: as §1, §2, §3, §4, §5, §6

TAOK2 (TAO1) (h) = TAOK2 (TAO1) (h) (Homo sapiens (Human), UniProt Q9UL54); settings: duplicate, read-out: % inhibition of control values, TAOK2 (TAO1) (h)
Description: as §1, §2, §3, §4, §5, §6

Fyn kinase (h) = Fyn kinase (h) (Homo sapiens (Human), UniProt P06241); settings: duplicate, read-out: % inhibition of control values, Fyn kinase (h)
Description: as §1, §2, §3, §4, §5, §6

IRAK4 (h) = IRAK4 (h) (Homo sapiens (Human), UniProt Q9NWZ3); settings: duplicate, read-out: % inhibition of control values, IRAK4 (h)
Description: as §1, §2, §3, §4, §5, §6

AurA/Aur2 kinase (h) = AurA/Aur2 kinase (h) (Homo sapiens (Human), UniProt O14965); settings: duplicate, read-out: % inhibition of control values, AurA/Aur2 kinase (h)
Description: as §1, §2, §3, §4, §5, §6

Pim1 kinase (h) = Pim1 kinase (h) (Homo sapiens (Human), UniProt P11309); settings: duplicate, read-out: % inhibition of control values, Pim1 kinase (h)
Description: as §1, §2, §3, §4, §5, §6

JAK2 (h) = JAK2 (h) (Homo sapiens (Human), UniProt O60674); settings: duplicate, read-out: % inhibition of control values, JAK2 (h)
Description: as §1, §2, §3, §4, §5, §6

HGK (h) (MAP4K4) = HGK (h) (MAP4K4) (Homo sapiens (Human), UniProt O95819); settings: duplicate, read-out: % inhibition of control values, HGK (h) (MAP4K4)
Description: as §1, §2, §3, §4, §5, §6

CHK1 (h) = CHK1 (h) (Homo sapiens (Human), UniProt O14757); settings: duplicate, read-out: % inhibition of control values, CHK1 (h)
Description: as §1, §2, §3, §4, §5, §6

PKCbeta 1 (h) = PKCbeta 1 (h) (Homo sapiens (Human), UniProt P05771); settings: duplicate, read-out: % inhibition of control values, PKCbeta 1 (h)
Description: as §1, §2, §3, §4, §5, §6

JAK1 (h) = JAK1 (h) (Homo sapiens (Human), UniProt P23458); settings: duplicate, read-out: % inhibition of control values, JAK1 (h)
Description: as §1, §2, §3, §4, §5, §6

Src kinase (h) = Src kinase (h) (Homo sapiens (Human), UniProt P12931); settings: duplicate, read-out: % inhibition of control values, Src kinase (h)
Description: as §1, §2, §3, §4, §5, §6

RSK2 (h) = RSK2 (h) (Homo sapiens (Human), UniProt P51812); settings: duplicate, read-out: % inhibition of control values, RSK2 (h)
Description: as §1, §2, §3, §4, §5, §6

CaMK4 (h) = CaMK4 (h) (Homo sapiens (Human), UniProt Q16566); settings: duplicate, read-out: % inhibition of control values, CaMK4 (h)
Description: as §1, §2, §3, §4, §5, §6

DCAMKL1 (h) = DCAMKL1 (h) (Homo sapiens (Human), UniProt O15075); settings: duplicate, read-out: % inhibition of control values, DCAMKL1 (h)
Description: as §1, §2, §3, §4, §5, §6

PKA (h) = PKA (h) (Homo sapiens (Human), UniProt P17612); settings: duplicate, read-out: % inhibition of control values, PKA (h)
Description: as §1, §2, §3, §4, §5, §6

CDC2/CDK1 (h) (cycB) = CDC2/CDK1 (h) (cycB) (Homo sapiens (Human), UniProt P06493); settings: duplicate, read-out: % inhibition of control values, CDC2/CDK1 (h) (cycB)
Description: as §1, §2, §3, §4, §5, §6

TRKA (h) = TRKA (h) (Homo sapiens (Human), UniProt P04629); settings: duplicate, read-out: % inhibition of control values, TRKA (h)
Description: as §1, §2, §3, §4, §5, §6

PAK1 (h) = PAK1 (h) (Homo sapiens (Human), UniProt Q13153); settings: duplicate, read-out: % inhibition of control values, PAK1 (h)
Description: as §1, §2, §3, §4, §5, §6

MNK2 (h) = MNK2 (h) (Homo sapiens (Human), UniProt Q9HBH9); settings: duplicate, read-out: % inhibition of control values, MNK2 (h)
Description: as §1, §2, §3, §4, §5, §6

NEK7 (h) = NEK7 (h) (Homo sapiens (Human), UniProt Q8TDX7); settings: duplicate, read-out: % inhibition of control values, NEK7 (h)
Description: as §1, §2, §3, §4, §5, §6

ERK2 (h) (P42mapk) = ERK2 (h) (P42mapk) (Homo sapiens (Human), UniProt P28482); settings: duplicate, read-out: % inhibition of control values, ERK2 (h) (P42mapk)
Description: as §1, §2, §3, §4, §5, §6

Abl kinase (h) = Abl kinase (h) (Homo sapiens (Human), UniProt P00519); settings: duplicate, read-out: % inhibition of control values, Abl kinase (h)
Description: as §1, §2, §3, §4, §5, §6

FGFR4 kinase (h) = FGFR4 kinase (h) (Homo sapiens (Human), UniProt P22455); settings: duplicate, read-out: % inhibition of control values, FGFR4 kinase (h)
Description: as §1, §2, §3, §4, §5, §6

Chain of IRAK4 (h) (Q9NWZ3 whole entry): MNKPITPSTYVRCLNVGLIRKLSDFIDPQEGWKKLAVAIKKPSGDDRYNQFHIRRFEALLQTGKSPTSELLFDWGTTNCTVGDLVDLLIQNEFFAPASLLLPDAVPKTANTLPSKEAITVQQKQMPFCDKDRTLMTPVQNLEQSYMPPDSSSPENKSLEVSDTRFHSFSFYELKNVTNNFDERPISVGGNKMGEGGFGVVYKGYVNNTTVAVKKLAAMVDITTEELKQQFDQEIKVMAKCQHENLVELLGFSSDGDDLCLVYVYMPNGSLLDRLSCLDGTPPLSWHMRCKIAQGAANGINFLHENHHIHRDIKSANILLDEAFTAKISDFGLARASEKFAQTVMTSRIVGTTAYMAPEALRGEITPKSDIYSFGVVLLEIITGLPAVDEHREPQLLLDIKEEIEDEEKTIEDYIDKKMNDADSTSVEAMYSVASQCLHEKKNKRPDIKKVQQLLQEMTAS
Chain of RSK2 (h) (P51812 whole entry): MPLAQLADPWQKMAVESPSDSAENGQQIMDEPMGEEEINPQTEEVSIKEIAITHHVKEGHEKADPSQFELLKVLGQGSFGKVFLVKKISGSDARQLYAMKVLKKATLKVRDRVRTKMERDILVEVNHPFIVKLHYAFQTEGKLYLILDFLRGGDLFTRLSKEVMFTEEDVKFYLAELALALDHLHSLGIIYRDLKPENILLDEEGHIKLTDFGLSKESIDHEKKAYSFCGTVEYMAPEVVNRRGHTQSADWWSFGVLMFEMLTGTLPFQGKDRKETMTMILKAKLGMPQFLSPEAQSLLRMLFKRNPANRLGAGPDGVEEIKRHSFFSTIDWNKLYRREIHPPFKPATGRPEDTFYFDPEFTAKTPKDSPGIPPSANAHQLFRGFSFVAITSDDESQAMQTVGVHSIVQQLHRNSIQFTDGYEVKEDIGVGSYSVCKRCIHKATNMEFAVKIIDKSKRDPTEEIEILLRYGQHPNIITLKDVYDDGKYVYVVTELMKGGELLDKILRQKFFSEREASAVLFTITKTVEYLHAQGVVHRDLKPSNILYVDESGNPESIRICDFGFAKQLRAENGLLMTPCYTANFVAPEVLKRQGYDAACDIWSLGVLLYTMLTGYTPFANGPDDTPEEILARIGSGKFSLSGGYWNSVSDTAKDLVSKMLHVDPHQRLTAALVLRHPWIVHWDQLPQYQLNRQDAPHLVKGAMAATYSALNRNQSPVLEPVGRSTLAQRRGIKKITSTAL
Chain of c-Met kinase (h) (P08581 25-1390): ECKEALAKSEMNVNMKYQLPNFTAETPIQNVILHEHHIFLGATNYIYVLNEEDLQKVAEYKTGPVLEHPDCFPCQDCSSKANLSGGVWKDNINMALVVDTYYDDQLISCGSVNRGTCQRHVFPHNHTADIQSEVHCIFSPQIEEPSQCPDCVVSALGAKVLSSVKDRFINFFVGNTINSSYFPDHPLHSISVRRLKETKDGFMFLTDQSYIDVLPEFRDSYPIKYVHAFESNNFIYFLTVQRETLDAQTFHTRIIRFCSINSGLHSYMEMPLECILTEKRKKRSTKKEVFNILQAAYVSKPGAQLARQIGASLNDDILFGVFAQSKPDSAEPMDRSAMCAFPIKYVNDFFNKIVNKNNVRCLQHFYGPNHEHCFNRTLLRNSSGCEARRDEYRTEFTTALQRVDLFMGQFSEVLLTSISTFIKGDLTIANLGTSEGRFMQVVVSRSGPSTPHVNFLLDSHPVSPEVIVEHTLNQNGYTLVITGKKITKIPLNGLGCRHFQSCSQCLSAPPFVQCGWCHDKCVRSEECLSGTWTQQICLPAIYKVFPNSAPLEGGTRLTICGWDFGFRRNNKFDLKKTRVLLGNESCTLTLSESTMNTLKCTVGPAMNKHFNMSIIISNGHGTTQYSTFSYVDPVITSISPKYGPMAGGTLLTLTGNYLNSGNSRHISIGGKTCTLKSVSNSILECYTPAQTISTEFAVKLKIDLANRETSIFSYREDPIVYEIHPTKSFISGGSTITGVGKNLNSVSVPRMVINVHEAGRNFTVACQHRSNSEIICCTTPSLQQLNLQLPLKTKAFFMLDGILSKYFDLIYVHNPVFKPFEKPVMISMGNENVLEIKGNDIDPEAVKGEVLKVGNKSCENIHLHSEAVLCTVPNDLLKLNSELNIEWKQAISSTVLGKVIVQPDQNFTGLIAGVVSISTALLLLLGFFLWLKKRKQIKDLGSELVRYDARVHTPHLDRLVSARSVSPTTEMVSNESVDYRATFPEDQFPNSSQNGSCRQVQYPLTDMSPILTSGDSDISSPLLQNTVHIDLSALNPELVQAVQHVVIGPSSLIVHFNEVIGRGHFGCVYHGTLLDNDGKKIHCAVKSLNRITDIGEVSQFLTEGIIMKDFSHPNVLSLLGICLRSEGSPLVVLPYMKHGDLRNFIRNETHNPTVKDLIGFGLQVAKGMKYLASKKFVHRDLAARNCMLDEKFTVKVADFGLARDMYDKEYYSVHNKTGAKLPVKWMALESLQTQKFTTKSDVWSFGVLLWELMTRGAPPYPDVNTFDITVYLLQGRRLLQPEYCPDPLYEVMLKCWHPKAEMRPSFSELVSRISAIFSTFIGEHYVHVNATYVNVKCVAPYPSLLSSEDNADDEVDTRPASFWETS
Chain of Pim2 kinase (h) (Q9P1W9 whole entry): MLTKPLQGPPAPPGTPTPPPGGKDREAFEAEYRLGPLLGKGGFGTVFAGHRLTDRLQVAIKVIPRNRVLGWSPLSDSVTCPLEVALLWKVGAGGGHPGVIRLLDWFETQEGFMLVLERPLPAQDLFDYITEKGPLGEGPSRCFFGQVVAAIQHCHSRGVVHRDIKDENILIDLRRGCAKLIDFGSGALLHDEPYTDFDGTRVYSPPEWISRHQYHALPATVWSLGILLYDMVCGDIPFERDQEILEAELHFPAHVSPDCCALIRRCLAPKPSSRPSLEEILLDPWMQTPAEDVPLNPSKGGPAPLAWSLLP
Chain of Fyn kinase (h) (P06241 whole entry): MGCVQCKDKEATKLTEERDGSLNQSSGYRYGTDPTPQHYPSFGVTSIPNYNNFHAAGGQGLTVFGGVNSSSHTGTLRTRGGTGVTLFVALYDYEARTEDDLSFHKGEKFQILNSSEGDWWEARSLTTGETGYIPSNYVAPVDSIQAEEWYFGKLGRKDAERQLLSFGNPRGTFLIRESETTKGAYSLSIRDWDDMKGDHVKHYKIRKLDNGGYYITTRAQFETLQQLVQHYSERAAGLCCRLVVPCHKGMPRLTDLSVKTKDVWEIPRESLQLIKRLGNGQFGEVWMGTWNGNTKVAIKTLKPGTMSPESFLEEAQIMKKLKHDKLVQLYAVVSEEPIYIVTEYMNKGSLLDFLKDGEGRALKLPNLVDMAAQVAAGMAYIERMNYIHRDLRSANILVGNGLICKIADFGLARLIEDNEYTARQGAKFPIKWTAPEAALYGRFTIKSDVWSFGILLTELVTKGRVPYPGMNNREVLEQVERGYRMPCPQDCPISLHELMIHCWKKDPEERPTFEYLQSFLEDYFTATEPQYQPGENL
Chain of Src kinase (h) (P12931 whole entry, looked up): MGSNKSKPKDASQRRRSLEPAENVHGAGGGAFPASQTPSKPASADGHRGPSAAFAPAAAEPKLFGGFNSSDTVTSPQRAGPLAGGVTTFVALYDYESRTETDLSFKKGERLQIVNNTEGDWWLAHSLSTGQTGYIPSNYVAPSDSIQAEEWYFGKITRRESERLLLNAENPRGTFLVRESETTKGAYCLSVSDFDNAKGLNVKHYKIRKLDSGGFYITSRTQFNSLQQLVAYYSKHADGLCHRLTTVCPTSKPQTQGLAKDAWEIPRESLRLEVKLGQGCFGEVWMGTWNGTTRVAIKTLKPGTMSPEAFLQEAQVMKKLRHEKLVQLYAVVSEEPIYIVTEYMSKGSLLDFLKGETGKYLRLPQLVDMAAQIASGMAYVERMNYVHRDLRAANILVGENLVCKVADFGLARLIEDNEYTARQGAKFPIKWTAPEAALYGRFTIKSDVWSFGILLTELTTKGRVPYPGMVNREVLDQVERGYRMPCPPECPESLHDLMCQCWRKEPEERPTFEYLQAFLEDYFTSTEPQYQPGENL
Chain of FGFR4 kinase (h) (P22455 22-802): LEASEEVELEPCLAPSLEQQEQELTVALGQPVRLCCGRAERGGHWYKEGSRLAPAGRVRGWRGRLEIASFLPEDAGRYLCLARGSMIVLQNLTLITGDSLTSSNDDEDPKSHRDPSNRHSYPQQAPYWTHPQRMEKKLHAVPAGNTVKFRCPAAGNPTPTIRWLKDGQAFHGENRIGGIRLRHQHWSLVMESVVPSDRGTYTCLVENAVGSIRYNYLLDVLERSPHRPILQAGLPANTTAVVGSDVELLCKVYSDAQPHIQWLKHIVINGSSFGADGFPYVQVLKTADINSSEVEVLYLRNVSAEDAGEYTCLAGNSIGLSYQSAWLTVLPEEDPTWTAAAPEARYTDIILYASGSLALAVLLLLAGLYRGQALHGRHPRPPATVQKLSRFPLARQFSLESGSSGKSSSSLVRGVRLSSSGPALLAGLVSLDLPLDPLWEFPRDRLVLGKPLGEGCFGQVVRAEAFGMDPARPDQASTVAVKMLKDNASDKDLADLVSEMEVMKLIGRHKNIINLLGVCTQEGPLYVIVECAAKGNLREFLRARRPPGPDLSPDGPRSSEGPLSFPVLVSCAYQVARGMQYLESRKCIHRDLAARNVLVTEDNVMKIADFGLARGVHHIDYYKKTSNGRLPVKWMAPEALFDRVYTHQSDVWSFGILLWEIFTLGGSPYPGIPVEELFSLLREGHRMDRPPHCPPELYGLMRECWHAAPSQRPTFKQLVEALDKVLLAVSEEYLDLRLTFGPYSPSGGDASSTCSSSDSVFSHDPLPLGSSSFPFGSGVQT
Chain of Pim1 kinase (h) (P11309 whole entry): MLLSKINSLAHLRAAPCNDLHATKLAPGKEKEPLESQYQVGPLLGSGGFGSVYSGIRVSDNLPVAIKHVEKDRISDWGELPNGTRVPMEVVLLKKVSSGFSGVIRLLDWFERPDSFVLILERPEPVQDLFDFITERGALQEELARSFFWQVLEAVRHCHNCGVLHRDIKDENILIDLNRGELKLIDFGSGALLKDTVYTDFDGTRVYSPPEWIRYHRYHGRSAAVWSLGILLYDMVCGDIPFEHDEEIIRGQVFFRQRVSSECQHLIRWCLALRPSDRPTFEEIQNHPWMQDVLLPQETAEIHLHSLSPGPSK

inhibition at 10 µM (c-Met kinase (h)) [%] | inhibition at 10 µM (Pim2 kinase (h)) [%] | inhibition at 10 µM (TAOK2 (TAO1) (h)) [%] | inhibition at 10 µM (Fyn kinase (h)) [%] | inhibition at 10 µM (IRAK4 (h)) [%] | inhibition at 10 µM (AurA/Aur2 kinase (h)) [%] | inhibition at 10 µM (Pim1 kinase (h)) [%] | inhibition at 10 µM (JAK2 (h)) [%] | inhibition at 10 µM (HGK (h) (MAP4K4)) [%] | inhibition at 10 µM (CHK1 (h)) [%] | inhibition at 10 µM (PKCbeta 1 (h)) [%] | inhibition at 10 µM (JAK1 (h)) [%] | inhibition at 10 µM (Src kinase (h)) [%] | inhibition at 10 µM (RSK2 (h)) [%] | inhibition at 10 µM (CaMK4 (h)) [%] | inhibition at 10 µM (DCAMKL1 (h)) [%] | inhibition at 10 µM (PKA (h)) [%] | inhibition at 10 µM (CDC2/CDK1 (h) (cycB)) [%] | inhibition at 10 µM (TRKA (h)) [%] | inhibition at 10 µM (PAK1 (h)) [%] | SMILES | further results
0 | 4 | 41 | 13 | 0 | 1 | 2 | 0 | 17 | 12 | 9 | 0 | 0 | 3 | 14 | 4 | 0 | 31 | 10 | 4 | COc1ccc2[nH]nc(C(=O)NCC3CCN(CCc4ccc(O)cc4)CC3)c2c1 [Compound 1, N-({1-[2-(4-hydroxyphenyl)ethyl]-piperidin-4-yl}methyl)-5-methoxy-1H-indazole-3-carboxamide] | inhibition at 10 µM (MNK2 (h)): 1%; inhibition at 10 µM (NEK7 (h)): 9%; inhibition at 10 µM (ERK2 (h) (P42mapk)): 33%; inhibition at 10 µM (Abl kinase (h)): 0%; inhibition at 10 µM (FGFR4 kinase (h)): 2%
0 | 5 | 54 | 10 | 18 | 30 | 10 | 2 | 99 | 1 | 0 | 10 | 0 | 20 | 13 | 0 | 3 | 99 | 4 | 4 | COc1ccncc1-c1ccc2[nH]nc(C(=O)NCC3CCN(Cc4ccc(C(=O)O)o4)CC3)c2c1 [Compound 21, 5-({4-[({[5-(4-Methoxypyridin-3-yl)-1H-indazol-3-yl]carbonyl}amino)methyl]piperidin-1-yl}methyl)furan-2-carboxylic acid formate] | inhibition at 10 µM (MNK2 (h)): 6%; inhibition at 10 µM (NEK7 (h)): 5%; inhibition at 10 µM (ERK2 (h) (P42mapk)): 89%; inhibition at 10 µM (Abl kinase (h)): 0%; inhibition at 10 µM (FGFR4 kinase (h)): 0%
2 | 3 | 8 | 3 | 1 | 4 | 2 | 0 | 19 | 0 | 0 | 1 | 0 | 1 | 11 | 0 | 0 | 10 | 1 | 1 | COc1ccc2[nH]nc(C(=O)NCC3CCN(Cc4ccc(C(=O)O)o4)CC3)c2c1 [Compound 24, 5-{[4-({[(5-Methoxy-1H-indazol-3-yl)carbonyl]amino}methyl)piperidin-1-yl]methyl}furan-2-carboxylic acid] | inhibition at 10 µM (MNK2 (h)): 0%; inhibition at 10 µM (NEK7 (h)): 3%; inhibition at 10 µM (ERK2 (h) (P42mapk)): 35%; inhibition at 10 µM (Abl kinase (h)): 0%; inhibition at 10 µM (FGFR4 kinase (h)): 4%
